The values that follow come from patent US20250375417A1, “OREXIN RECEPTOR 2 (OX2R) AGONIST FOR USE IN NARCOLEPSY TYPE 1 (NT1)” (TAKEDA PHARMACEUTICAL COMPANY LIMITED, priority 2024, published 2025).

The subject of data set [1] is participants with NT1. The experiment in a line: Clinical and Patient Global Impression (CGI, PGI), Phase 2 NT1 trial. The data set is classed as in vivo, human. As to conditions: Week 8, patients treated with Compound A. The source says:
The Patient Global Impression Scale-Severity Scale (PGI-S) provides a participant-perceived assessment of overall symptoms (4-point Likert-type scale, “normal to “severe”) administered at baseline while the Patient Global Impression-Improvement Scale (PGI-I) provides a participant-perceived summary of global treatment effect on daytime sleepiness and cataplexy (7-point Likert-type scale, “very much improved” to “very much worse”) administered at different points during treatment.
The Clinical Global Impression Scale provides an overall clinician-determined summary measure of a participant's treatment experience that takes into account all available information, including knowledge of the participant's history, psychosocial circumstances, symptoms, behavior, and the impact of the symptoms on the participant's ability to function. The assessment consists of various subscales. One is the Clinical Global Impression-Severity (CGI-S). The CGI-S assesses the severity of overall narcolepsy symptoms. It uses a 7-point Likert-type scale ranging from “normal, not at all ill” to “among the most extremely ill patients.”
Another subscale is the Clinical Global Impression-Improvement (CGI-I), which assesses improvement of symptoms. The CGI-I asks clinicians to rate the extent to which their patients' current overall narcolepsy symptoms are improved (compared with the start of the study). […]

Data set [2] has as its system participants with NT1. Nature of the data set: Weekly cataplexy rate (WCR), Phase 2 NT1 trial. In kind it is in vivo, human. How it is done:
In some aspects of the methods described herein, the subject experiences a lower weekly cataplexy rate (WCR) after a treatment period compared to an untreated subject.
Cataplexy events are recorded for 14 consecutive days, starting after completion of washout of any anti-cataplexy medications and completed before Day-2 are considered for WCR study entry criterion. The total number of events/week (WCR) is calculated based on the number of cataplexy episodes averaged over 2 weeks, with at least 11 out of 14 days required to calculate the WCR.
Randomization was stratified by region. Starting on the morning of Day 1, the study drug was administered at approximately the same time each day for 8 or 12 weeks. If the participant wished to enroll in the long-term extension (LTE) study described in Example 3 but the LTE study had not started at the participant's site when the participant completed the Week 8 visit of the current study, the participant was allowed to continue in the current study for an additional 4 weeks.
The following doses were studied: • Compound A Dose Regimen 1:0.5 mg twice daily approximately 3 hours apart. • Compound A Dose Regimen 2:2 mg twice daily approximately 3 hours apart. • Compound A Dose Regimen 3:2 mg followed by 5 mg approximately 3 hours apart. • Compound A Dose Regimen 4:7 mg once daily (QD). • Other products required for the study: Matching placebo. […]

Data set [3] can be described thus: Clinical studies of Compound A: drug-induced liver injury. In kind it is in vivo. The text has this:
Liver function test (LFTs) (alanine aminotransferase [ALT], aspartate aminotransferase [AST], γ-glutamyl transferase [GGT], and total bilirubin) were closely monitored in this study. Stopping criteria for individual participants and the overall study, based on abnormal LFTs were established.

Data set [4] deals with participants with NT1. Nature of the data set: SF-36 and EQ-5D-5L health-related quality of life, Phase 2 NT1 trial. The data set is classed as in vivo, human. The text has this: Health conditions such as mobility, self-care, usual activities, pain/discomfort, and/or anxiety/depression as related to NT1 can be assessed by the EQ-5D-5L assessment. The EQ-5D-5L is a standardized 5-item measure of health status developed by the EuroQol Group to provide a simple, generic measure of health for clinical and economic appraisal that has been used in a wide range of health conditions and treatments (Herdman et al. 2011; Janssen et al. 2013). The EQ-5D-5L consists of a descriptive system and the EuroQol visual analog scale (VAS). The descriptive system comprises 5 dimensions: mobility, self-care, usual activities, pain/discomfort, and anxiety/depression. The EuroQol VAS records the participant's self-rated health on a vertical VAS. This can be used as a quantitative measure of health outcome that reflects the participant's own judgment. The scores on these 5 dimensions can be presented as a health profile or can be converted to a single summary index number (utility) reflecting preferability compared with other health profiles.
Patient health self-assessments can be measured by the SF-36. The SF-36 is a 36-item, participant-reported survey of participant health. […] Similar to each scale, the component scores are also positively scored so that higher scores represent better health-related quality-of-life. […]

SMILES strings stand for the structures. Where only a bound is given, the exact number is not on record here.

As to `CCS(=O)(=O)N[C@@H]1[C@H](Cc2cccc(-c3cc(F)cc(F)c3)c2F)N(C(=O)C(C)(C)O)CC1(F)F` [Compound A, N-{(2S,3R)-4,4-difluoro-1-(2-hydroxy-2-methylpropanoyl)-2-[(2,3′,5′-trifluoro[1,1′-biphenyl]-3-yl)methyl]pyrrolidin-3-yl}ethanesulfonamide], the “Patients much/very much improved on the PGI and CGI” value with participants with NT1 [1] is given as more than 70%. Moreover, in the data set on participants with NT1 [2] (2 mg/2 mg and 2 mg/5 mg dose groups, adjusted for multiple comparisons), the “Change from baseline to Week 8 in WCR versus placebo” value is “statistically significant changes”. In addition, the “Median WCR versus placebo” value in the data set with participants with NT1 [2] (twice daily dosing (FIG. 5)) is on record as “significantly reduced cataplexy events”. For the same molecule, the Drug-induced liver injury entry in data set [3] is “No cases of drug-induced liver injury have been reported”. Moreover, the “SF-36 summary scores, change from baseline versus placebo” value in the data set with participants with NT1 [4] (all Compound A doses (FIG. 22)) is given as “Statistically significant improvements”. The “EQ-5D (index score and VAS), change from baseline versus placebo” value with participants with NT1 [4] (all Compound A doses (FIG. 23)) was “Statistically significant improvements”.
